In paper PMC5836727 (ACS chemical biology, 2017):

Assays:
CG6178 = target: T1, CG6178 (Drosophila melanogaster, UniProt Q9VCC6); assay: bioluminescence; format: biochemical; conditions: ATP, MgSO4, pH 7.4; 20 nM enzyme, 250 uM luciferin
T1 sequence (Q9VCC6 1-544): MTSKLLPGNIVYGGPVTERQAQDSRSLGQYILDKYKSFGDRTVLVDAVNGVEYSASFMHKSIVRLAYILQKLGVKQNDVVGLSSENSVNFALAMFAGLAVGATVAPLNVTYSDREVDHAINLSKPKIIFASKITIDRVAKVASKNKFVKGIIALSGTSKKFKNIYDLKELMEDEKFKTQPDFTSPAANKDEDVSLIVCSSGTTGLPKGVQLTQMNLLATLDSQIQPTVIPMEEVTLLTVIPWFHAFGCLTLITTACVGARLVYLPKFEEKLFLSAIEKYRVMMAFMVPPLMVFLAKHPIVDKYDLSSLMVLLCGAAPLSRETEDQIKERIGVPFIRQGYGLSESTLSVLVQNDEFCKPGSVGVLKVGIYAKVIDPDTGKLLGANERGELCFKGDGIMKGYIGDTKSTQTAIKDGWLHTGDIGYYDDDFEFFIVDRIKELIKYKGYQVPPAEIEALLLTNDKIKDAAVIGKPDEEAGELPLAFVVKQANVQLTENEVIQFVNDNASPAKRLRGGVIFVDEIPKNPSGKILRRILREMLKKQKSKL

firefly luciferase [1] = target: T2, firefly luciferase (Photinus pyralis, UniProt P08659); assay: bioluminescence of transfected live CHO cells; format: cell-based; conditions: 100 uM in HBSS
T2 sequence (P08659 whole entry): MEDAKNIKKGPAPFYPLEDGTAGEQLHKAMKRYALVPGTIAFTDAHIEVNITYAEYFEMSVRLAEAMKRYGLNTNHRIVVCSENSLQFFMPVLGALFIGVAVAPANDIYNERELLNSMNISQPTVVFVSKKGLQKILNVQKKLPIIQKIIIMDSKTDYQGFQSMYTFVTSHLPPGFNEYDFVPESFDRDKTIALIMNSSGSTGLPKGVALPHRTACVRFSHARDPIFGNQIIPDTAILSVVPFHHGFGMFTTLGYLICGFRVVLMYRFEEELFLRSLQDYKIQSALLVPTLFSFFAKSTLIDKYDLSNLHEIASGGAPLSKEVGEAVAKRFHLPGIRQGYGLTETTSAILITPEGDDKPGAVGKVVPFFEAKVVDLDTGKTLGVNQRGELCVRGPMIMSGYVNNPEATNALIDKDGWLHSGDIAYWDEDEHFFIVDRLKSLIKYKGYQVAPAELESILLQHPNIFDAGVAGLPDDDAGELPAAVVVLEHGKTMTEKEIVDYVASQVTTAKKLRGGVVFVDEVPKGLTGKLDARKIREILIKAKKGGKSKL

firefly luciferase [2] = target: T2, firefly luciferase; assay: bioluminescence burst kinetics after rapid injection; format: biochemical; conditions: 100 nM enzyme, 100 uM substrate

CN1CCc2cc3nc(C4=N[C@@H](C(=O)O)CS4)sc3cc21 [CycLuc2]
bioluminescence (photon flux, IVIS-100; burst kinetics) (CG6178): we found that CG6178 is capable of luciferase activity when treated with the synthetic luciferin CycLuc2

O=C(O)[C@H]1CSC(/C=C/c2ccc(N3CCCC3)cc2)=N1 [compound 5, (S,E)-2-(4-(pyrrolidin-1-yl)styryl)-4,5-dihydrothiazole-4-carboxylic acid]
bioluminescence of transfected live CHO cells (firefly luciferase [1]): all three are substrates for firefly luciferase and AbLL

O=C(O)[C@H]1CSC(c2nc3ccc(O)cc3s2)=N1 [D-luciferin]
bioluminescence burst kinetics after rapid injection (firefly luciferase [2]): more pronounced with the tighter-binding synthetic luciferins than with D-luciferin
